Laboratory results taken from publication PMC8625052, “The Antiarrhythmic Activity of Novel Pyrrolidin-2-one Derivative S-75 in Adrenaline-Induced Arrhythmia” (Pharmaceuticals, 2021).

Experiments:
[1] = tested on: post-reperfusion arrhythmia of isolated rat heart; assay: Antiarrhythmic activity in the post-reperfusion model in isolated rat heart; conditions: reperfusion; for Extrasystoles (%) / Fibrillations (%) / Tachycardia (%): % occurrence; for Arrhythmia Severity Index: Bernauer scale
Method: Hearts form Wistar rats were isolated and immersed in Chenoweth–Koelle solution (120 mM NaCl; 5 mM KCl; 2.2 mM MgCl2; […]; 2.4 mM CaCl2; 10 mM glucose). Hearts were perfused according to the Langendorff model under a constant pressure of 70 cm H2O (6.87 kPa) with a solution at 37 °C, pH 7.4, constantly oxygenated (O2/CO2, 19:1) using the MyoHEART Langendorff System-900MH (Danish Myo Technology, Hinnerup, Denmark), which monitored the ECG. After 20 min stabilization period, acute myocardial ischemia was induced locally by installing a clamp on the left coronary artery (ischemic period). After 15 min, the clamp was removed, and ECG changes were monitored for 30 min (reperfusion period). The tested compound was added to the perfusion solution 15 min before coronary artery clamping. The point scale described by Bernauer was used to assess the antiarrhythmic activity in this arrhythmia model. The occurrence of a specific type of heart rhythm disturbance during the reperfusion period was scored according to the following scale: • occurrence of less than 10 extrasystoles—1 point; • occurrence of more than 10 extrasystoles—2 points; • presence of ventricular tachycardia—3 points; • presence of fibrillation—4 points.

[2] = tested on: adrenaline-induced arrhythmia in rats; assay: Prophylactic antiarrhythmic activity in adrenaline-induced arrhythmia; assay type: in vivo, rat
[3] = tested on: adrenaline-induced arrhythmia in rats; assay: Therapeutic antiarrhythmic activity in adrenaline-induced arrhythmia; assay type: in vivo, rat
Method: The experiments were carried out according to the method described by Szekeres and Papp. The heart rhythm disturbances were evoked by intravenous administration of adrenaline (20 µg/kg) to anesthetized rats (thiopental, 75 mg/kg). The tested compound was administered iv immediately after the injection of adrenaline, at dose 5 mg/kg. The ECG was recorded during the first 2 min and in the 5th, 10th, and 15th min after the adrenaline injection. […] The criterion of antiarrhythmic activity was the decrease or complete absence of extrasystoles, atrioventricular blocks and bradycardia in the ECG recording in comparison with the control group.

[4] = target: Ca2+ channel (L, verapamil site); assay: Radioligand binding assay for Ca2+ channel ([3H]-D888); design: species or system rat; conditions: rat cortex tissue; [3H]-D888
Method: The radioligand binding studies for K^+ and Ca^2+ channels were performed commercially by Eurofins Cerep (Celle l’Evescault, France) using testing procedures described elsewhere. […]

[5] = tested on: aconitine-induced arrhythmia in rats; assay: Prophylactic antiarrhythmic activity in aconitine-induced arrhythmia; assay type: in vivo, rat; conditions: rat, in vivo, 5 mg/kg
[6] = adrenaline 20 μg/kg iv, dose 0.25 mg/kg iv 15 min before, % occurrence
[7] = 5 mg/kg iv immediately after adrenaline, % occurrence

## CCCCc1oc2ccccc2c1C(=O)c1cc(I)c(OCCN(CC)CC)c(I)c1 [Amiodarone]
[1]; concentration 10^−9 M
  Extrasystoles (%): 100%
  Fibrillations (%): 66.7%
  Tachycardia (%): 100%
  Arrhythmia Severity Index: 7.7

## COc1ccccc1OCCNCC(O)COc1cccc2[nH]c3ccccc3c12 (stereo not shown) [Carvedilol, reference compound]
[2]; Rattus norvegicus, prophylactic, iv 15 min before adrenaline 20 μg/kg, Litchfield and Wilcoxon, limits in brackets, read-out: ED50 (a dose producing a 50% inhibition of ventricular contractions)
  ED50: 0.36 mg/kg
[2]; [6]
  Blocks (%): 100%
  Bradycardia (%): 16.6%
  Extrasystoles (%): 100%
  Mortality (%): 66.7%
[3]; 5 mg/kg iv immediately after adrenaline 20 µg/kg, compared to the vehicle-treated group
  decrease of the number of adrenaline-induced extrasystoles: 95.2%
[3]; [7]
  Blocks (%): 83.3%
  Mortality (%): 16.7%

## COc1ccc(CCN(C)CCCC(C#N)(c2cc(OC)c(OC)c(OC)c2)C(C)C)cc1OC [D-600, reference compound]
[4]
  IC50: 0.037 µM

## CCCNCC(O)COc1ccccc1C(=O)CCc1ccccc1 (stereo not shown) [Propafenone, reference compound]
[5]
  Blocks (%): 83.3%
  Bradycardia (%): 100%
  Extrasystoles (%): 66.7%
  Fibrillations (%): 33.3%
  Mortality (%): 16.6%
[1]; concentration 10^−11 M
  Extrasystoles (%): 100%
  Fibrillations (%): 33.3%
  Tachycardia (%): 66.7%
  Arrhythmia Severity Index: 6.7
